Data published in ChEMBL document CHEMBL5053528, “Discovery of 2-(Ortho-Substituted Benzyl)-Indole Derivatives as Potent and Orally Bioavailable RORγ Agonists with Antitumor Activity” (J Med Chem, 2021).
One block for each molecule: values may come before it.

Experiments:
[1] = Microsomal stability in human liver microsomes assessed as half life; type: ADME, Microsome
[2] = Microsomal stability in rat liver microsomes assessed as half life; type: ADME, Microsome
[3] = Clearance in rat at 1 mg/kg, iv; type: ADME, organism-based; details: in vivo
[4] = Clearance in dog at 0.5 mg/kg, iv; type: ADME, organism-based, Canis lupus familiaris; details: in vivo
[5] = Cmax in mouse at 2 mg/kg, po; type: ADME, organism-based; parameters: dose 2 mg/kg, route po; details: in vivo
[6] = Cmax in rat at 2 mg/kg, po; type: ADME, organism-based; parameters: dose 2 mg/kg, route po; details: in vivo
[7] = Cmax in dog at 2 mg/kg, po; type: ADME, organism-based, Canis lupus familiaris; parameters: dose 2 mg/kg, route po; details: in vivo
[8] = Half life in rat at 2 mg/kg, po; type: ADME, organism-based; details: in vivo
[9] = Volume of distribution in rat at 2 mg/kg, po; type: ADME, organism-based; details: in vivo
[10] = AUC (0 to t) in mouse at 1 mg/kg, iv; type: ADME, organism-based; parameters: dose 1 mg/kg, route iv; details: in vivo
[11] = AUC (0 to t) in mouse at 2 mg/kg, po; type: ADME, organism-based; parameters: dose 2 mg/kg, route po; details: in vivo
[12] = AUC (0 to t) in rat at 1 mg/kg, iv; type: ADME, organism-based; parameters: dose 1 mg/kg, route iv; details: in vivo
[13] = AUC (0 to t) in rat at 2 mg/kg, po; type: ADME, organism-based; parameters: dose 2 mg/kg, route po; details: in vivo
[14] = AUC (0 to t) in dog at 0.5 mg/kg, iv; type: ADME, organism-based, Canis lupus familiaris; parameters: dose 0.5 mg/kg, route iv; details: in vivo
[15] = AUC (0 to t) in dog at 2 mg/kg, po; type: ADME, organism-based, Canis lupus familiaris; parameters: dose 2 mg/kg, route po; details: in vivo
[16] = Volume of distribution in mouse at 1 mg/kg, iv; type: ADME, organism-based; details: in vivo, iv, 1 mg/kg
[17] = Volume of distribution in mouse at 2 mg/kg, po; type: ADME, organism-based; details: in vivo
[18] = Volume of distribution in rat at 1 mg/kg, iv; type: ADME, organism-based; details: in vivo
[19] = Volume of distribution in dog at 0.5 mg/kg, iv; type: ADME, organism-based, Canis lupus familiaris; details: in vivo
[20] = Volume of distribution in dog at 2 mg/kg, po; type: ADME, organism-based, Canis lupus familiaris; details: in vivo
[21] = Half life in mouse at 1 mg/kg, iv; type: ADME, organism-based; details: in vivo, iv, 1 mg/kg
[22] = Half life in mouse at 2 mg/kg, po; type: ADME, organism-based; details: in vivo
[23] = Half life in rat at 1 mg/kg, iv; type: ADME, organism-based; details: in vivo
[24] = Half life in dog at 0.5 mg/kg, iv; type: ADME, organism-based, Canis lupus familiaris; details: in vivo
[25] = Half life in dog at 2 mg/kg, po; type: ADME, organism-based, Canis lupus familiaris; details: in vivo
[26] = Oral bioavailability in mouse; type: ADME, organism-based; details: in vivo
[27] = Oral bioavailability in rat; type: ADME, organism-based; details: in vivo
[28] = Oral bioavailability in dog; type: ADME, organism-based, Canis lupus familiaris; details: in vivo
[29] = system: Mus musculus; assay: Toxicity in C57BL/6 mouse infected with mouse MC38 cells assessed as change in body weight at 10 mg/kg, po administered once daily for 25 days and measured twice a week; type: organism-based, MC-38; details: in vivo, 600 h, time 25 day
[30] = system: Mus musculus; assay: Toxicity in C57BL/6 mouse injected with mouse MC38 cells assessed as change in body weight at 10 mg/kg, po administered once daily for 25 days in combination with anti-mouse-PD1 monoclonal antibody at 5 mg/kg, ip and measured twice a week; type: organism-based, MC-38; details: in vivo, 600 h, time 25 day
[31] = system: MC-38; assay: Antitumor activity against mouse MC38 cells injected C57BL/6 mouse syngenic model assessed as tumor growth inhibition at 10 mg/kg, po administered once daily for 25 days relative to control; type: functional; details: C57BL/6, MC-38, 600 h, time 25 day, read-out: TGI
[32] = system: MC-38; assay: Antitumor activity against mouse MC38 cells injected C57BL/6 mouse syngenic model assessed as tumor growth inhibition at 10 mg/kg, po administered once daily for 25 days in combination with anti-mouse PD-1 monoclonal antibody at 5 mg/kg, ip relative to control; type: functional; details: C57BL/6, MC-38, 600 h, time 25 day, read-out: TGI
[33] = Drug exposure in plasma of C57BL/6 mouse injected with mouse MC38 cells at 10 mg/kg, po measured 3 hrs post dose on day 25 by LC/MS analysis; type: ADME, organism-based, MC-38; details: time 25 day
[34] = Drug exposure in plasma of C57BL/6 mouse injected with mouse MC38 cells at 10 mg/kg, po measured 3 hrs post dose on day 25 in combination with anti-mouse PD1 monoclonal antibody at 5 mg/kg, ip by LC/MS analysis; type: ADME, organism-based, MC-38; details: time 25 day
[35] = Drug exposure in tumor of C57BL/6 mouse injected with mouse MC38 cells at 10 mg/kg, po measured 3 hrs post dose on day 25 by LC/MS analysis; type: ADME, organism-based, Neoplasm, MC-38; details: time 25 day, read-out: Drug uptake
[36] = Drug exposure in tumor of C57BL/6 mouse injected with mouse MC38 cells at 10 mg/kg, po measured 3 hrs post dose on day 25 in combination with anti-mouse PD1 monoclonal antibody at 5 mg/kg, ip by LC/MS analysis; type: ADME, organism-based, Neoplasm, MC-38; details: time 25 day, read-out: Drug uptake
[37] = Effects of compound in IL-17 production in CD3/CD28-stimulated C57BL/6 mouse tumor lymphocytes assessed as increase in IL-17 production at 10 mg/kg by ELISA (Rvb= 19 +/- 5 pg/ml); type: functional, Lymphocyte
[38] = Effects of compound in IL-17 production in CD3/CD28-stimulated C57BL/6 mouse tumor lymphocytes assessed as increase in IL-17 production at 10 mg/kg in combination with anti-mouse PD1 monoclonal antibody at 5 mg/kg by ELISA (Rvb= 29 +/- 9 pg/ml); type: functional, Lymphocyte
[39] = Effects of compound in IFNgamma production in CD3/CD28-stimulated C57BL/6 mouse tumor lymphocytes assessed as increase in IFNgamma production at 10 mg/kg by ELISA (Rvb= 262 +/- 81 pg/ml); type: functional, Lymphocyte
[40] = Effects of compound in IFNgamma production in CD3/CD28-stimulated C57BL/6 mouse tumor lymphocytes assessed as increase in IFNgamma production at 10 mg/kg in combination with anti-mouse PD1 monoclonal antibody at 5 mg/kg by ELISA (Rvb= 1467 +/- 878 pg/ml); type: functional, Lymphocyte

half-life [1]: 0.217 h | half-life [2]: 0.2 h
SMILES: CCS(=O)(=O)c1ccc(CNC(=O)c2ccc3c(c2)cc(Cc2ccccc2OC)n3C(C)C)cc1

clearance [3]: 16.2 mL/min/kg | clearance [4]: 0.954 mL/min/kg | Cmax [5]: 3660 ng/mL | Cmax [6]: 55.7 ng/mL | Cmax [7]: 2080 ng/mL | half-life [8]: 5.96 h | Vd [9]: 25.7 L/kg | AUC(0-t) [10]: 79800 ng·h/mL | AUC(0-t) [11]: 50600 ng·h/mL | AUC(0-t) [12]: 1050 ng·h/mL | AUC(0-t) [13]: 618 ng·h/mL | AUC(0-t) [14]: 8640 ng·h/mL | AUC(0-t) [15]: 29100 ng·h/mL | Vd [16]: 0.877 L/kg | Vd [17]: 0.637 L/kg | Vd [18]: 3.65 L/kg | Vd [19]: 0.654 L/kg | Vd [20]: 0.873 L/kg | t1/2 [21]: 5.04 h | half-life [22]: 11.2 h | half-life [23]: 2.67 h | half-life [24]: 8.8 h | half-life [25]: 11.8 h | bioavailability [26]: 31.7% | bioavailability [27]: 29.4% | bioavailability [28]: 84.2% | concentration at 600 h [33]: 9120 ng/mL | concentration at 600 h [34]: 10800 ng/mL | concentration at 600 h [35]: 2020 ng/mL | concentration at 600 h [36]: 2320 ng/mL
SMILES: CCS(=O)(=O)c1ccc([C@H](CO)NC(=O)c2ccc3c(c2)cc(Cc2ccc(Cl)cc2C(F)(F)F)n3CCF)cc1
Activity [29]: Non-Toxic | Activity [30]: Non-Toxic | inhibition in vivo at 10 mg/kg [31]: 37% | inhibition in vivo at 10 mg/kg [32]: 62% | Activity [37]: 36 pg/mL | Activity [38]: 81 pg/mL | Activity [39]: 1217 pg/mL | Activity [40]: 2455 pg/mL

half-life [1]: 2.32 h | half-life [2]: 1.7 h
SMILES: CCS(=O)(=O)c1ccc(CNC(=O)c2ccc3c(c2)cc(Cc2ccc(Cl)cc2C(F)(F)F)n3C2CC2)cc1
